Results on three molecules are retold here after US20250228837A1, “(2S)-1-[4-(3,4-DICHLOROPHENYL)PIPERIDIN-1-YL]-3-[2-(5-METHYL-1,3,4-OXADIAZOL-2-YL)BENZO[B]FURAN-4-YLOXY] PROPAN-2-OL OR ITS METABOLITE FOR TREATING ANXIETY DISORDERS” (Minerva Neurosciences, Inc., priority 2016, published 2025).

Series [1] addresses T1, 5-HT1A receptor (Homo sapiens, UniProt P08908).
T1 sequence (P08908 1-422): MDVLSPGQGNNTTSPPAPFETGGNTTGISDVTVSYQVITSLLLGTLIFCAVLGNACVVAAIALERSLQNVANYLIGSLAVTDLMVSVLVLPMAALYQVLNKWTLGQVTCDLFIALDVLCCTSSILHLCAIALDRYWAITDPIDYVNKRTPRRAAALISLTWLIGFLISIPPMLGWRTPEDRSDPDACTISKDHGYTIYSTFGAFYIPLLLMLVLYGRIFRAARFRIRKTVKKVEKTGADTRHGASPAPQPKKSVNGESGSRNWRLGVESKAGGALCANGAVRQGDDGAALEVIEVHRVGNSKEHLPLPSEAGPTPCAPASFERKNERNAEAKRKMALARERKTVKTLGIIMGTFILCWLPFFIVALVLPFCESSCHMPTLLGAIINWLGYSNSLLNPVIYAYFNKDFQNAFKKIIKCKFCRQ
The conditions noted are these: from U.S. Pat. No. 6,720,320 / Minerva Form 10K, cited from earlier work.

The next series has as its target serotonin reuptake (Homo sapiens, UniProt P31645). The conditions noted are these: from U.S. Pat. No. 6,720,320 / Minerva Form 10K, cited from earlier work.
Series [2] has as its target T1, 5-HT1A receptor. The following applies: in vitro; disclosed in U.S. Pat. No. 6,720,320; cited from earlier work.
In another series the test system is adult subjects with MDD. Briefly: Phase 2a randomized, double-blind, placebo- and active-controlled study; anxiety by HAM-A over 6 weeks. In kind it is in vivo, human. The following applies: for speed of onset of the reduction in total HAM-A score: 0.5 mg dose compared with the 2.5 mg dose and other arms, Week 1 vs. Week 2; for reduction in severity of anxiety symptoms compared to placebo (change from baseline in total HAM-A score): MDD patients, ITT, once daily oral 0.5 mg or 2.5 mg, 6 weeks of treatment. The method, then:
In an embodiment, the effect of the treatment is measured using the Hamilton Anxiety Scale (HAM-A). The subject is asked to rate the gravity of each item using a 5-level scale—from 0 to 4, where 0 being not present and 4 being severe. The results are then collated and tabulated to determine the severity of anxiety: a HAM-A score of <17 is mild anxiety, HAM-A score of 18-24 is mild to moderate anxiety, and HAM-A score of 25-30 is moderate to severe anxiety.
A phase 2a, multicenter, multinational, randomized, double-blind, placebo- and active-controlled parallel-group study was conducted to investigate the efficacy and safety of MIN-117 in adult subjects with MDD. One of the exploratory objectives of the study was to assess effects of MIN-117 compared to placebo on anxiety as measured by change from baseline in the Hamilton Anxiety Rating Scale (HAM-A) over 6 weeks of treatment.
The study consisted of a 4-week pre-treatment phase during which subjects were washed out from antidepressant medications or other psychotropics, followed by a 6-week treatment phase, and then an end of study (EOS) follow-up visit at approximately 2-weeks after the end of the treatment phase. MIN-117 capsules of 0.5 mg and 2.5 mg strength were used in the study. The capsules were size 4 made of white hard gelatin containing the drug substance, lactose, cornstarch, low substituted hydroxypropylcelullose and hydroxypropylcelullose, and purified water.
Eighty-four eligible subjects (met the DSM-5 diagnostic criteria for moderate to severe MDD, without psychotic features) were randomized in a 1:1:1:1 ratio, to receive once daily oral doses of placebo, MIN-117 at 0.5 mg, MIN-117 at 2.5 mg, or paroxetine at 20 mg as an active comparator for 6 weeks. Paroxetine is an antidepressant of the SSRI class and is used to treat MDD, OCD, PTSD, social anxiety disorder, panic disorder, GAD, premenstrual dysphoric disorder and menopausal hot flashes. The HAM-A scale was used to measure the severity of each subject's anxiety at screening, baseline, and weeks 1, 2, 4, 6 (or early withdrawal) and EOS.
Subjects had to meet all of the following inclusion criteria to be eligible for participation in this study: • 1. Subjects must be able to read and understand the consent forms, complete study-related procedures, and communicate with the study staff. • 2. Subjects must have provided written consent to participate in the study and understand that they are free to withdraw from the study at any time. • 3. Male or female subjects must be 18 to 65 years of age, inclusive, at Screening (Visit 1). • 4. Subjects have a body mass index (BMI) of ≥18 to ≤35 kg/m^2 [BMI=weight (kg)/height (m^2)] at Screening (Visit 1) • 5. Subjects must meet Diagnostic and Statistical Manual of Mental Disorders—Fifth Edition (DSM-5) criteria for diagnosis of moderate or severe depression without psychotic features (ICD-9 codes 296.32 & 296.33; ICD-10 codes F33.1 & F33.2, respectively) at Screening based on clinical assessment and on the MINI, v7.0. • 6. Subjects have a history of at least one previous episode of depression prior to the current episode. • 7. Current major depressive episode of at least 8 weeks in duration. • 8. Subjects must have a score of ≥30 on the investigator-rated MADRS at Screening (Visit 1) and Baseline (Visit 2a). • 9. Subjects must have a score of ≥4 on the investigator-rated CGI-S at Screening (Visit 1) and Baseline (Visit 2a). • 10. Subjects must be in good general health prior to study participation with no clinically relevant abnormalities as assessed by the investigator and determined by medical history, physical examination, blood chemistry, hematology, urinalysis, and electrocardiogram (ECG). • 11. […] Male subjects who are willing to use condom for the duration of the study and until 90 days after the last dose of the study, even if they have had vasectomy, and must inform their partners about taking an investigational medication. […]

For the next series, the target named is 5-HT2A receptors (Homo sapiens, UniProt P28223). The following applies: Minerva Form 10K, 14 Mar. 2016; cited from earlier work.
A further series has as its target T2, α1B-adrenergic receptor (Homo sapiens, UniProt P35368).
T2 sequence (P35368 1-520): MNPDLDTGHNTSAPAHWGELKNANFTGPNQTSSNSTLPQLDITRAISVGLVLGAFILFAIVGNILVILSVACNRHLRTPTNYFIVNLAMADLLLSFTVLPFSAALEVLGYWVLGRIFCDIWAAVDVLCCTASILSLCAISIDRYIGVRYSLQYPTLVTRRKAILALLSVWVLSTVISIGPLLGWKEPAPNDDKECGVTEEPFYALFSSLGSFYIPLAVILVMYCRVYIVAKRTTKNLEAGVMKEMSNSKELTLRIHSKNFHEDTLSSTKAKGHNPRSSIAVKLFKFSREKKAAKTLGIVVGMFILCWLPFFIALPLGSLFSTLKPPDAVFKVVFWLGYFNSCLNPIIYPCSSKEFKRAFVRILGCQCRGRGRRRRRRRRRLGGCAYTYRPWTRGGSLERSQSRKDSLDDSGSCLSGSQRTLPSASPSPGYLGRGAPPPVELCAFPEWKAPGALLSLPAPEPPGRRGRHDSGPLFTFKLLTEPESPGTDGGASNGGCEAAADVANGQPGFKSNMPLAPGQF
The following applies: Minerva Form 10K, 14 Mar. 2016; cited from earlier work.

Another series concerns the target T3, α1A-adrenergic receptor (Homo sapiens, UniProt P35348).
T3 sequence (P35348 1-466): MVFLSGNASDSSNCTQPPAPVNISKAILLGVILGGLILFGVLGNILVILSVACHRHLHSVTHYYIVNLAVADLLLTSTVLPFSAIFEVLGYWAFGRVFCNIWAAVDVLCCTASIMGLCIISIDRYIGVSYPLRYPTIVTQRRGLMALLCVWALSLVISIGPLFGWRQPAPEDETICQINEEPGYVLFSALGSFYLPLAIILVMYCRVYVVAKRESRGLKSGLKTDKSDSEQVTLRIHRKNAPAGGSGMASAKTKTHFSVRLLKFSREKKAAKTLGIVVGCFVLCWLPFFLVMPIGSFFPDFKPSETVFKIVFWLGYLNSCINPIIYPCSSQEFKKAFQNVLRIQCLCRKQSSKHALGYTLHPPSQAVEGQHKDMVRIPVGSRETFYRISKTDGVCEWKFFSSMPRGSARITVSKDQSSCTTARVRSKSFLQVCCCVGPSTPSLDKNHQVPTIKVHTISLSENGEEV
The conditions noted are these: Minerva Form 10K, 14 Mar. 2016; cited from earlier work.

In the next series the target is dopamine reuptake (Homo sapiens, UniProt Q01959). The following applies: Minerva Form 10K, 14 Mar. 2016; cited from earlier work.

“Also recorded” adds a separate entry of the source. Where a name gives a salt, the structure may show the parent alone. Read-outs that look alike come from different tables or passages of the source.

Chain of serotonin reuptake (P31645 whole entry): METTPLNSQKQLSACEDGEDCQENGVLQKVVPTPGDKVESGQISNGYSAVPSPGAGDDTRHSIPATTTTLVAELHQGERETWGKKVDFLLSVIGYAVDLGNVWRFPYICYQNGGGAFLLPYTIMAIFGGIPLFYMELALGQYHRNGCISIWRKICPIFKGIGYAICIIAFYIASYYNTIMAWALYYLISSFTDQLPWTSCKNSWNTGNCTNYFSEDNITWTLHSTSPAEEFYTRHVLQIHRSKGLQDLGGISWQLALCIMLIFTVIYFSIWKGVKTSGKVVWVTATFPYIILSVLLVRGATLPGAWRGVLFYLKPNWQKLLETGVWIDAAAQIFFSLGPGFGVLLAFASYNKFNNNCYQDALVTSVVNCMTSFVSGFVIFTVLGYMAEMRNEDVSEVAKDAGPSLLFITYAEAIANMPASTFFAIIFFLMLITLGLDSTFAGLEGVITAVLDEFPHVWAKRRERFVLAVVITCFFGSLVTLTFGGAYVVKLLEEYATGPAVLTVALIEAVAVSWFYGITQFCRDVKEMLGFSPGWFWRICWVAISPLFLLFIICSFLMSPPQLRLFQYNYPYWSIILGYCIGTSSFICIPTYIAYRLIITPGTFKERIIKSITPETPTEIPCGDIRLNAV
Chain of 5-HT2A receptors (P28223 whole entry): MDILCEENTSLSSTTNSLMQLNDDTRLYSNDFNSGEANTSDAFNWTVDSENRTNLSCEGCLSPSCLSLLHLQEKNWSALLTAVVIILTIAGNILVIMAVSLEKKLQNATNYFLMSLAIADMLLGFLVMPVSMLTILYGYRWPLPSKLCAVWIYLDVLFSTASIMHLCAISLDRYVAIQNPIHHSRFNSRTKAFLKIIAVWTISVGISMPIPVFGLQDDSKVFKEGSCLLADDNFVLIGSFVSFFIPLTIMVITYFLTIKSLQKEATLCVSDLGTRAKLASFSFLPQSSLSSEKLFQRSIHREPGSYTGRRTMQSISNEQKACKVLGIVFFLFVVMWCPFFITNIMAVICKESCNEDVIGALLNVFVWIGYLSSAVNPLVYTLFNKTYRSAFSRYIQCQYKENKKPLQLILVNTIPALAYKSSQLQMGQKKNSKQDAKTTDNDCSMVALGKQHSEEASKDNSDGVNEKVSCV
Chain of dopamine reuptake (Q01959 whole entry): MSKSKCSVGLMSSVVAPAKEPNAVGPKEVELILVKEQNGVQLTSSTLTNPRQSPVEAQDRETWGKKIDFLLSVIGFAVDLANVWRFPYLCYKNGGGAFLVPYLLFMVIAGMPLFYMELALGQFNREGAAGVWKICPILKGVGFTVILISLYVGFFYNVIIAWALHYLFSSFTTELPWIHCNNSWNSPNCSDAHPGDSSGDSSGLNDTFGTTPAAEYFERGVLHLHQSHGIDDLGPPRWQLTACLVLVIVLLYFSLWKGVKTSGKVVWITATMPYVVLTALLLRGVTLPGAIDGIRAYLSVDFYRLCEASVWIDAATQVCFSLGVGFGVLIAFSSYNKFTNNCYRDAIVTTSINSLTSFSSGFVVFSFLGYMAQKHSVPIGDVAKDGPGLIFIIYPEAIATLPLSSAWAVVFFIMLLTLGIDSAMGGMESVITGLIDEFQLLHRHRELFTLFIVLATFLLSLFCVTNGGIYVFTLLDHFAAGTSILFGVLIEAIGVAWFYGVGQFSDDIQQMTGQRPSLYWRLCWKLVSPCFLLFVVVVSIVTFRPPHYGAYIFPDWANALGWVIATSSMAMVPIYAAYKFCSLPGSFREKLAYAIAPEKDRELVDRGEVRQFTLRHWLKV

With `Cc1nnc(-c2cc3c(OC[C@@H](O)CN4CCC(c5ccc(Cl)c(Cl)c5)CC4)cccc3o2)o1` [Compound I, (2S)-1-[4-(3,4-dichlorophenyl)piperidin-1-yl]-3-[2-(5-methyl-1,3,4-oxadiazol-2-yl)benzo[b]furan-4-yloxy]propan-2-ol], the “activity at the 5-HT1A receptor” value on 5-HT1A receptor [1] is “antagonistic activity”. On serotonin reuptake, the “activity on serotonin (5-HT) reuptake” value is given as 5-HT reuptake inhibitory activity. The “affinity for the 5-HT1A receptor” value on 5-HT1A receptor [2] is listed as “selective affinity”. Besides, in the series with adult subjects with MDD, the “speed of onset of the reduction in total HAM-A score” value is on record as “more rapid reduction” and the “reduction in severity of anxiety symptoms compared to placebo (change from baseline in total HAM-A score)” value was “reduced anxiety symptoms compared to placebo; also recorded: capable of reducing the severity of one or more anxiety symptoms”.
In the case of `OCc1nnc(-c2cc3c(OC[C@@H](O)CN4CCC(c5ccc(Cl)c(Cl)c5)CC4)cccc3o2)o1` [Compound II, (2S)-1-[4-(3,4-dichlorophenyl)piperidin-1-yl]-3-[2-(5-hydroxymethyl-1,3,4-oxadiazol-2-yl)benzo[b]furan-4-yloxy]propan-2-ol], the “activity at the 5-HT1A receptor” value at 5-HT1A receptor [1] is “antagonistic activity”. Besides, at serotonin reuptake, the “activity on serotonin (5-HT) reuptake” value was 5-HT reuptake inhibitory activity. Also, the “affinity for the 5-HT1A receptor” value on 5-HT1A receptor [2] was “selective affinity”.
Regarding `Cc1nnc(-c2cc3c(OC[C@@H](O)CN4CCC(c5ccc(Cl)c(Cl)c5)CC4)cccc3o2)o1` [MIN-117, (2S)-1-[4-(3,4-dichlorophenyl)piperidin-1-yl]-3-[2-(5-methyl-1,3,4-oxadiazol-2-yl)benzo[b]furan-4-yloxy]propan-2-ol monohydrochloride], the “activity at the 5-HT2A receptor” value at 5-HT2A receptors is reported as “antagonist”. In addition, the “activity at the 5-HT1A receptor” value on 5-HT1A receptor [1] (monohydrochloride) is listed as “antagonist”. Also, the “activity on serotonin (5-HT) reuptake” value on serotonin reuptake (monohydrochloride) was “antagonist”. Moreover, on α1B-adrenergic receptor, the “affinity for the α1B-adrenergic receptor” value is reported as “having affinity”. For the same molecule, at α1A-adrenergic receptor, the “affinity for the α1A-adrenergic receptor” value is “having affinity”. Also, the “activity on dopamine reuptake” value on dopamine reuptake is listed as “antagonist”. Besides, in the series on adult subjects with MDD (monohydrochloride), the “speed of onset of the reduction in total HAM-A score” value was “fastest onset” and the “reduction in severity of anxiety symptoms compared to placebo (change from baseline in total HAM-A score)” value is “reduces anxiety symptoms; also recorded: capable of reducing the severity of one or more anxiety symptoms”. Besides, the “time after starting therapy to a beneficial result over placebo” value with adult subjects with MDD (0.5 mg total daily dose) is given as 2 weeks. Further, the tolerability entry in the series on adult subjects with MDD (both doses (0.5 mg and 2.5 mg once daily, 6 weeks)) is “well tolerated”. The “ability of both doses to reduce severity of symptoms, 0.5 mg vs 2.5 mg” value with adult subjects with MDD (by Week 6) is given as “comparable”.
